Results reported in ChEMBL document CHEMBL1201862, “PubChem BioAssay data set” (2004).
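Tested at 5 concentrations; 48 h exposure; 96-well plates; endpoints linearly interpolated, else capped at highest concentration. GI50 is the concentration that inhibits growth by half.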 The source made the active and inactive calls. Cut-off read from the data, not from the text of the source: active = GI50 up to about 1.1 µM and inactive = higher.

Key:
Experiment in all cases: NCI tumour cell line growth inhibition, 48 h
[1] = tested on: HCC 2998
[2] = tested on: NCI-H460
[3] = tested on: M14
[4] = tested on: LOX IMVI
[5] = tested on: ACHN
[6] = tested on: OVCAR-3
[7] = tested on: MDA-MB-435
[8] = tested on: Hs-578T
[9] = tested on: HL-60
[10] = tested on: SNB-75
[11] = tested on: DU-145
[12] = tested on: SR
[13] = tested on: Malme-3M
[14] = tested on: MCF7
[15] = tested on: U-251
[16] = tested on: SF-268
[17] = tested on: A498
[18] = tested on: RXF 393
[19] = tested on: SF-539
[20] = tested on: NCI-H23

Structure (SMILES)	GI50 [1]	GI50 [2]	GI50 [3]	GI50 [4]	GI50 [5]	GI50 [6]	GI50 [7]	GI50 [8]	GI50 [9]	GI50 [10]	GI50 [11]	GI50 [12]	GI50 [13]	GI50 [14]	GI50 [15]	GI50 [16]	GI50 [17]	GI50 [18]	GI50 [19]	GI50 [20]
CCCCNc1nc(SC)nc2[nH]cnc12	> 100 µM (inactive)	> 100 µM (inactive)	> 100 µM (inactive)	> 100 µM (inactive)	> 100 µM (inactive)	> 100 µM (inactive)	> 100 µM (inactive)	2.36 µM (inactive)	> 100 µM (inactive)	76.7 µM (inactive)	> 100 µM (inactive)	> 100 µM (inactive)	> 100 µM (inactive)	> 100 µM (inactive)	> 100 µM (inactive)	98.4 µM (inactive)	5.96 µM (inactive)	> 88.5 µM (inactive)	> 100 µM (inactive)	> 100 µM (inactive)
CCOC(=O)C(Cc1ccc(N(CCCl)CCCl)cc1)NC(=O)CCCN1C(=O)CN=C(c2ccccc2)c2cc(Cl)ccc21 (stereo not given)	12.4 µM (inactive)	5.35 µM (inactive)	7 µM (inactive)	3.18 µM (inactive)	7.08 µM (inactive)	2.22 µM (inactive)	16.1 µM (inactive)	6.67 µM (inactive)	2.21 µM (inactive)	15.8 µM (inactive)	14.9 µM (inactive)	2.31 µM (inactive)	2.35 µM (inactive)	8.53 µM (inactive)	27.3 µM (inactive)	4.01 µM (inactive)	39.9 µM (inactive)	3.25 µM (inactive)	6.37 µM (inactive)	9.66 µM (inactive)
O=C1c2cccnc2C(=O)c2c1nc1ccccc1c2-c1cncc(-c2c3c(nc4ccccc24)C(=O)c2cccnc2C3=O)c1	0.359 µM (active)	0.19 µM (active)	0.115 µM (active)	0.139 µM (active)	0.124 µM (active)	0.0752 µM (active)	0.256 µM (active)	0.39 µM (active)	0.0687 µM (active)	0.398 µM (active)	0.165 µM (active)	< 0.01 µM (active)	0.28 µM (active)	0.157 µM (active)	0.146 µM (active)	0.159 µM (active)	2.56 µM (inactive)	0.316 µM (active)	2.19 µM (inactive)	0.343 µM (active)
C=C(C)C(=O)/N=C(\N)NC#N	132 µM (inactive)	> 75 µM (inactive)	45.3 µM (inactive)	33 µM (inactive)	138 µM (inactive)	68.7 µM (inactive)	131 µM (inactive)	161 µM (inactive)	20 µM (inactive)	67.9 µM (inactive)	70.5 µM (inactive)	28.1 µM (inactive)	24.8 µM (inactive)	47.5 µM (inactive)	> 76.9 µM (inactive)	27.1 µM (inactive)	> 46.5 µM (inactive)	36.6 µM (inactive)	34.8 µM (inactive)	72.3 µM (inactive)
CCc1ccc(/C=C/C(=O)C2CN(CC)CCC2(O)/C=C/c2ccc(CC)cc2)cc1 (stereo not given)	2.22 µM (inactive)	2.22 µM (inactive)	2.61 µM (inactive)	1.51 µM (inactive)	1.95 µM (inactive)	1.71 µM (inactive)	1.88 µM (inactive)	2.83 µM (inactive)	2.77 µM (inactive)	9.33 µM (inactive)	9.55 µM (inactive)	1.71 µM (inactive)	7.31 µM (inactive)	2.42 µM (inactive)	1.66 µM (inactive)	4.57 µM (inactive)	10.7 µM (inactive)	3.18 µM (inactive)	2.31 µM (inactive)	4.61 µM (inactive)
COc1ccc(-c2coc3cc(OC)cc(O)c3c2=O)cc1 [4',7-DIMETHOXY-5-HYDROXYGENISTEIN]	> 100 µM (inactive)	> 100 µM (inactive)	52.7 µM (inactive)	> 100 µM (inactive)	34.4 µM (inactive)	> 100 µM (inactive)	> 100 µM (inactive)	31.1 µM (inactive)	> 100 µM (inactive)	> 100 µM (inactive)	> 100 µM (inactive)	> 100 µM (inactive)	> 100 µM (inactive)	> 100 µM (inactive)	43.3 µM (inactive)	51.3 µM (inactive)	24.8 µM (inactive)	27.9 µM (inactive)	78.3 µM (inactive)	30.8 µM (inactive)
